Values quoted from earlier work, collected in US7217714B1, “CCR5 modulators” (Agouron Pharmaceuticals, Inc., priority 1998, dated 2007).

B1: MIP-1α: "the macrophage inflammatory proteins (MIP) designated MIP-1α and MIP-1β" (protein, UniProt P10147 24-92, looked up)
C-C motif chemokine 3: SLAADTPTACCFSYTSRQIPQNFIADYFETSSQCSKPGVIFLTKRSRQVCADPSEEWVQKYVSDLELSA
B2: RANTES: "a protein which is regulated upon activation and is normal T-cell expressed and secreted (RANTES)" (protein, UniProt P13501 24-91, looked up)
C-C motif chemokine 5: SPYSSDTTPCCFAYIARPLPRAHIKEYFYTSGKCSNPAVVFVTRKNRQVCANPEKKWVREYINSLEMS
B3: MIP-1β: "the macrophage inflammatory proteins (MIP) designated MIP-1α and MIP-1β" (protein, UniProt P13236 24-92, looked up)
C-C motif chemokine 4: APMGSDPPTACCFSYTARKLPRNFVVDYYETSSLCSQPAVVFQTKRSKQVCADPSESWVQEYVYDLELN

Experiments:
[1] = test system: CXCR4 dependent primary and lab-adapted HIV viruses; details: susceptible cultures
[2] = test system: CCR5-tropic strains; details: Baba et al. PNAS 1999
[3] = test system: primary HIV isolates

Molecule | suppression of replication of primary HIV isolates [3] | other results
c1cc(CN2CCCNCCNCCCNCC2)ccc1CN1CCCNCCNCCCNCC1 [AMD3100] | – | inhibition of infection by CXCR4 dependent HIV [1]: inhibit infection
Cc1ccc(-c2ccc3c(c2)C=C(C(=O)Nc2ccc(C[N+](C)(C)C4CCOCC4)cc2)CCC3)cc1.[Cl-] [TAK 779] | – | block of entry of CCR5-tropic strains [2]: blocks entry
SDF-1: "the chemokines RANTES, MIP-1α, MIP-1β, SDF-1 have been shown to suppress replication of primary HIV isolates" | suppress replication | –
B1 | suppress replication | –
B2 | suppress replication | –
B3 | suppress replication | –
